The values that follow are results of earlier work, collected in the CATMoS acute toxicity set (Mansouri et al. 2021).

“And” between values parts separate entries of the source, which are not always exact repeats. Equal entries are not always repeated.

The nature of this data set: rat acute oral toxicity. The settings on record: in vivo.
With `CCCOCCOC(=O)C1=C(C)NC(C)=C(C(=O)OCCOCCC)C1c1cccc([N+](=O)[O-])c1`, the LD50 is 1470 mg/kg. Consider `O=C1CCc2cc(C(=O)CCN3CCN(c4cccc(Cl)c4)CC3)ccc2N1`, for which the LD50 is 500 mg/kg. As to `CC(O)CC=O` (stereo unspecified), the LD50 is 2180 mg/kg. As for `COc1cc2c(cc1OC)C1Cc3ccc(OC)c(OC)c3CN1CC2` (stereo unspecified), the 50% lethal dose (LD50) was 580 mg/kg. With `CC(N)C12CC3CC(CC(C3)C1)C2` (stereo unspecified), the median lethal dose (LD50) was 640 mg/kg. For `Nc1cccc2c3c([nH]c12)CCCC3`, the LD50 is 1380 mg/kg.

Consider `CCC(C)c1cc([N+](=O)[O-])cc([N+](=O)[O-])c1OC(C)=O` (stereo unspecified), for which the LD50 was 60 mg/kg.

For `CCCCCOc1ccc(Br)cc1COCCN(CC)CC`, the LD50 was 320 mg/kg. For the molecule `CCCC1(CC(=O)O)OCCc2c1[nH]c1ccccc21` (stereo unspecified), the LD50 is 1420 mg/kg. In the case of `CC(O)CN(CC(C)O)CC(C)O` (stereo unspecified), the LD50 was 4730 mg/kg. With `CCOP(=S)(OCC)Oc1ccccc1[N+](=O)[O-]`, the LD50 is 25 mg/kg. As for `COP(=S)(OC)SCn1nc(C)ccc1=O`, the median lethal dose (LD50) was 8.75 mg/kg. For `c1ccc2sc(SN(C3CCCCC3)C3CCCCC3)nc2c1`, the LD50 is 6420 mg/kg. On to `CCn1c2ccccc2c2cc(N)ccc21`, for which the median lethal dose (LD50) is 144 mg/kg and 234 mg/kg. Take `COc1cc2c3c(c4ccc(OC)c(OC)c4c2cc1OC)CN1CCCC1C3` (stereo unspecified): the 50% lethal dose (LD50) is 65 mg/kg. Regarding `CO[C@@H]1[C@@H](O[C@@H]2O[C@H](C)[C@@H](O[C@H]3C[C@@](C)(O)[C@@H](OC(=O)CC(C)C)[C@H](C)O3)[C@H](N(C)C)[C@H]2O)[C@@H](CC=O)C[C@@H](C)[C@@H](O)C=CC=CC[C@@H](C)OC(=O)C[C@H]1O`, the LD50 is 6990 mg/kg. As to `COc1ccccc1C=Nc1ccccc1C(=O)O`, the median lethal dose (LD50) was 1500 mg/kg. `C1CSCCO1`: the median lethal dose (LD50) was 2830 mg/kg. Regarding `CS/C(C)=N/OC(=O)N(C)SN(C)C(=O)O/N=C(\C)SC`, the LD50 is 66 mg/kg.

Consider `CC1CC(C)(C)CC(OOC(C)(C)C)(OOC(C)(C)C)C1` (stereo unspecified), for which the LD50 is 12900 mg/kg. Turning to `O=[N+]([O-])C(Br)(Br)CO`, the LD50 is 29.1 mg/kg. Take `CCCCCCCCCCCCCCCCCC1=NCCN1CCO`: the 50% lethal dose (LD50) was 3800 mg/kg.

On to `CCCCC(CC)C(=O)O[Si](C)(OC(=O)C(CC)CCCC)OC(=O)C(CC)CCCC` (stereo unspecified), for which the LD50 was 2280 mg/kg. In the case of `COCCOc1c(OC)cc(Cc2cnc(N)nc2N)cc1OC`, the LD50 is 1170 mg/kg. Take `CC(=O)CC1OCC(CCl)O1` (stereo unspecified): the LD50 is 120 mg/kg. For the molecule `Cc1cn(-c2cc(N)cc(C(F)(F)F)c2)cn1`, the 50% lethal dose (LD50) is 50 mg/kg. On to `CNC(=O)c1cc(Oc2ccc(N)c(F)c2)ccn1`, for which the median lethal dose (LD50) was 500 mg/kg. `CCOC(=O)C(Cl)=NNc1ccccc1`: the LD50 is 13000 mg/kg. Consider `C=C(C)C(=O)OCCC#N`, for which the LD50 was 7330 mg/kg. On to `CON(C)C(=O)CC(SP(=S)(OC)OC)C(=O)N(C)OC` (stereo unspecified), for which the LD50 was 14 mg/kg. Consider `CC(=O)C=C1CCC2C13CCC(C)C(C3)C2(C)C` (stereo unspecified), for which the median lethal dose (LD50) is 5200 mg/kg. Turning to `OC(CCl)COCCCCCOCC(O)CCl` (stereo unspecified), the LD50 is 2250 mg/kg. As to `CCCOP(=S)(OCCC)SCC(=O)N1CCCCC1C` (stereo unspecified), the LD50 was 324 mg/kg. Consider `C=COCCSCC`, for which the LD50 was 4920 mg/kg. For the molecule `C[Si](C)(C)CC(=O)O`, the LD50 is 3000 mg/kg. In the case of `Cc1ccc(=O)n(-c2ccccc2)c1`, the median lethal dose (LD50) was 1300 mg/kg. For `COP(=S)(OC)SCOC(C)=O`, the 50% lethal dose (LD50) is 93 mg/kg. As to `N#CC=Cc1ccccc1`, the median lethal dose (LD50) was 4150 mg/kg. `CC(C(O)c1ccccc1)N(C)CCC#N` (stereo unspecified): the 50% lethal dose (LD50) was 940 mg/kg. In the case of `O=C1CCCN1c1cccc2cccnc12`, the LD50 is 1650 mg/kg. Take `Cc1cc2c(cc1C)C(=O)c1n[nH]nc1C2=O`: the 50% lethal dose (LD50) was 980 mg/kg.

For the molecule `O=c1oc2ccccc2c(O)c1C(CC(O)c1ccc(-c2ccc(Br)cc2)cc1)c1ccccc1` (stereo unspecified), the LD50 was 0.49 mg/kg. For the molecule `COC(=O)C1=C(C#N)NC(C)=C(C(=O)OC(C)C)C1c1cccc([N+](=O)[O-])c1` (stereo unspecified), the 50% lethal dose (LD50) is 1560 mg/kg. On to `COCC(C)N(C(=O)CCl)c1c(C)csc1C` (stereo unspecified), for which the LD50 is 397 mg/kg. Regarding `Clc1ccc(CSC(Cn2cncn2)=Nc2ccc(Cl)cc2Cl)cc1`, the LD50 was 2800 mg/kg. On to `C=COC`, for which the LD50 is 4900 mg/kg. With `CCSC(=S)N(CC)CC`, the 50% lethal dose (LD50) was 712 mg/kg. With `O=NN(c1cccc(C(F)(F)F)c1)c1ccccc1C(=O)O`, the LD50 was 900 mg/kg. With `C=CC(=O)OCCCl`, the LD50 is 180 mg/kg. For the molecule `Nc1nc(N)c2cc(N(Cc3ccc(Cl)c(Cl)c3)N=O)ccc2n1`, the LD50 was 317 mg/kg. As for `CNC1=Nc2ccc(Cl)cc2C(c2ccccc2)=[N+]([O-])C1`, the LD50 was 537 mg/kg. Consider `COP(=S)(OC)SCn1nc(Cl)ccc1=O`, for which the LD50 was 5 mg/kg. With `c1ccc2c(c1)Oc1ccccc1O2`, the LD50 was 1220 mg/kg. As for `O=[N+]([O-])c1ccc(Oc2ccc(C(F)(F)F)cc2Cl)cc1`, the LD50 is 1000 mg/kg. On to `CCn1c(=O)c2ccccc2n(-c2cccc(C(F)(F)F)c2)c1=O`, for which the LD50 is 1500 mg/kg. In the case of `CNC(=O)ON=C1SC(=NC(C)(C)C)SC1(C)C`, the LD50 is 31.5 mg/kg.

As a reminder, the LD50 is the dose at which mortality reaches 50%.
